The nature of this series: in vitro. Particulars: human, plasma.

Counter-ions that a name gives are not always drawn. Non-standard residues stand in square brackets, D forms with d. Residues, ends and D or L forms follow the SMILES beside them. Phe(2-Me) = Cc1ccccc1C[C@H](N)C(=O)O

By fraction unbound is commonly meant the share of the substance not bound to proteins or other matrix. Take `Cc1cccc(Nc2nc(NCc3ccco3)c3ccccc3n2)c1`: for the setting “PPB”, the fraction unbound at 5 h is 0.0007. Same read-out and setting: under `Cc1ccc(-c2cc(C(=O)NCc3cn(C)nc3C)c3cc(Br)ccc3n2)cc1` stands 0.0063. `Cc1nc(N2CCOCC2)c2cc(-c3ccccc3)sc2n1` showed a free fraction (fraction unbound) at 5 h (PPB) of 0.0042. On to `O=C(Nc1ccc(Cl)cc1)Nc1nnc(-c2ccncc2)s1`, for which the fraction unbound at 5 h (PPB) is 0.0017. Still for that read-out and setting: the result for `CCn1cc(CNC(=O)c2cc(-c3ccc(C)cc3)nc3ccc(Br)cc23)c(C)n1` reads 0.0011; that for `N#Cc1c(-c2ccc(-c3ccccc3O)cc2)nc2ccncc2c1O`, 0.0026; that for `N#Cc1c(-c2ccc(-c3ccncc3Cl)cc2)nc2ccncc2c1O`, 0.0055. For `N#Cc1c(-c2ccc(-c3cccnc3)cc2)nc2ccncc2c1O`, under “PPB”, the fraction unbound at 5 h was 0.007. The compound `O=C(O)C(c1ccccc1)N1CCO[C@H](CN2CCC(Oc3ccc(Cl)c(Cl)c3)CC2)C1` (stereo not given in full) showed a fraction unbound at 5 h (PPB) of 0.0064. `Cc1cc(-c2cc(=O)[nH]c(NCc3cccc4ccccc34)n2)ccn1` gave a fraction unbound at 5 h (PPB) of 0.0025. As to `Cc1csc(NC(=O)COc2ncnc3c2cnn3-c2ccccc2Cl)n1`, the fraction unbound at 5 h (PPB) is 0.0082. The same measure, in the same setting: the result for `COc1cc(OC)c(S(=O)(=O)N2c3ccccc3Oc3ccccc32)cc1NC(=O)Cc1ccnc(F)c1` reads 0.0099; that for `O=C(Nc1ccccc1-c1cn2c(CN3CCNCC3)csc2n1)c1cnc2ccccc2n1`, 0.0099. On the same count and under the same terms, under `COc1ccc2c(O)cc(=O)n(Cc3ccc(-c4ccccc4-c4nn[nH]n4)cc3)c2c1` stands 0.0011; under `CN(C)c1cc(NC(=O)Nc2cccc(Cl)c2)c2ccccc2n1`, 0.0014. The same measure, in the same setting: under `Cc1cc(Nc2nc(N[C@@H](C)c3ccc(F)cc3)ncc2Cl)n[nH]1` stands 0.009. As to `Cc1ncc(NC(=O)c2cc(NC(=O)c3cc(F)cc(C(F)(F)F)c3)ccc2Cl)s1`, the fraction unbound at 5 h (PPB) was 0.0035. Still for that read-out and setting: the result for `O=C(Nc1ccc(Cl)c(C(=O)Nc2cncs2)c1)c1cccc(Cl)c1` reads 0.002.

`Cc1ncc(NC(=O)c2cc(NC(=O)c3cccc(C(F)(F)F)c3)ccc2Cl)s1` showed a fraction unbound at 5 h (PPB) of 0.004.

Under “PPB”, `Cc1ncc(NC(=O)c2cc(NC(=O)c3cccc(Cl)c3)ccc2Cl)s1` showed a fraction unbound at 5 h of 0.002. In the case of `CNC(=O)c1cc(Oc2ccc3c(c2)nc(Nc2ccc(C(F)(F)F)cc2)n3C)ccn1`, the fraction unbound at 5 h (PPB) is 0.005. Under “PPB”, `COc1ccc(N(C(=O)c2ccccc2)C(C(=O)NC2CCCC2)c2ccccc2F)c(OC)c1` (stereo not given) showed a fraction unbound at 5 h of 0.0033. Under “PPB”, `O=C(COc1cccc(Cl)c1)NC1CCN(Cc2ccn(-c3ccc(C(F)(F)F)cc3)c2)CC1` gave a fraction unbound at 5 h of 0.0072. Consider `Cc1ncc(NC(=O)c2cc(NC(=O)c3cc(F)cc(Cl)c3)ccc2Cl)s1`, for which the fraction unbound at 5 h (PPB) was 0.004.

In turn, `O=C(Nc1ccc(Cl)c(C(=O)Nc2cncs2)c1)c1cccc(C(F)(F)F)c1` gave a fraction unbound at 5 h (PPB) of 0.004.

Where the note is “PPB”, `CC(C)Oc1cc2ncc(C(N)=O)c(Nc3ccc(Cl)c(Cl)c3)c2cc1N1CCN(C)CC1` returned a fraction unbound at 5 h of 0.0099. Same read-out and setting: under `Cc1nc(C(F)(F)F)ccc1C(=O)Nc1ccc(Cl)c(-c2ccccn2)c1` stands 0.0099; under `COc1ccc(C[C@H](N)C(=O)N[C@@H](Cc2ccccc2C)C(N)=O)cc1` (H-Tyr(Me)-[Phe(2-Me)]-NH2), 0.36.

In turn, `CCCCCCCC(=O)N[C@@H](CCN)C(=O)N[C@H](C(=O)N[C@@H](C)C(=O)N[C@H]1CCNC(=O)[C@H]([C@@H](C)O)NC(=O)[C@H](CCN)NC(=O)[C@H](CCN)NC(=O)[C@H](CC(C)C)NC(=O)[C@@H](Cc2ccccc2)NC(=O)[C@H](CCN)NC1=O)[C@@H](C)O` (HELM PEPTIDE1{[CCCCCCCC(=O)[*:2]].[Dab].T.A.[Dab].[Dab].[dF].L.[Dab].[Dab].T}$PEPTIDE1,PEPTIDE1,5:R3-11:R2$$$V2.0) showed a fraction unbound at 5 h (PPB) of 0.112. On the same count and under the same terms, under `CCCCCCCC(=O)N[C@@H](CCN)C(=O)N[C@H](C(=O)N[C@@H](CCN)C(=O)N[C@H]1CCNC(=O)[C@H]([C@@H](C)O)NC(=O)[C@H](C)NC(=O)[C@H](CCN)NC(=O)[C@H](CC(C)C)NC(=O)[C@@H](Cc2ccccc2)NC(=O)[C@H](CCN)NC1=O)[C@@H](C)O` (HELM PEPTIDE1{[CCCCCCCC(=O)[*:2]].[Dab].T.[Dab].[Dab].[Dab].[dF].L.[Dab].A.T}$PEPTIDE1,PEPTIDE1,5:R3-11:R2$$$V2.0) stands 0.132; under `O[C@H](c1cc(C(F)(F)F)nc2c(C(F)(F)F)cccc12)[C@@H]1CCCCN1` [(R,S)-MEFLOQUINE], 0.0214; under `CC(C)(C)c1ccc2c(c1)CC[C@H]2NC(=O)Nc1cccc2[nH]ncc12` [ABT-102], 0.0022. In turn, `COc1ccc2c(c1O)-c1cccc3c1[C@@H](C2)N(C)CC3` [APOCIDEINE] had a fraction unbound at 5 h of 0.062. `CCOC(=O)[C@H](CCc1ccccc1)N[C@H]1CCc2ccccc2N(CC(=O)O)C1=O` [BENAZEPRIL] had a fraction unbound at 5 h (PPB) of 0.0409. Same read-out and setting: the result for `CC(C)C[C@H](NC(=O)[C@H](Cc1ccccc1)NC(=O)c1cnccn1)B(O)O` [BORTEZOMIB] reads 0.132; that for `CCCC[C@H](NC(C)=O)C(=O)N[C@H]1CC(=O)NCCCC[C@@H](C(=O)O)NC(=O)[C@H](Cc2c[nH]c3ccccc23)NC(=O)[C@H](CCCN=C(N)N)NC(=O)[C@@H](Cc2ccccc2)NC(=O)[C@H](Cc2cnc[nH]2)NC1=O` [BREMELANOTIDE], 0.729; that for `[H]/N=C(/N)c1ccc(NCc2nc3cc(C(=O)N(CCC(=O)O)c4ccccn4)ccc3n2C)cc1` [DABIGATRAN], 0.529. `COc1ccc(OC)c(C(O)CN)c1` (stereo not given) [DESGLYMIDODRINE] gave a fraction unbound at 5 h of 0.78. Under “PPB”, `CC(NCCC(c1ccccc1)c1ccccc1)c1ccccc1` (stereo not given) [FENDILINE] gave a fraction unbound at 5 h of 0.0116.

`CC1=C(/C=C/C(C)=C/C=C/C(C)=C/C(=O)Nc2ccc(O)cc2)C(C)(C)CCC1` [FENRETINIDE] had a fraction unbound at 5 h (PPB) of 0.0019. Still for that read-out and setting: the result for `COc1cc2ncn(-c3cc(OCc4ccccc4S(C)(=O)=O)c(C#N)s3)c2cc1OC` [GSK-319347A] reads 0.0111; that for `Fc1ccc(-c2c3cccc(C(F)(F)F)c3nn2Cc2ccc(F)cc2Cl)cc1` [LXR-623], 0.0006. Same read-out and setting: under `CN(Cc1cnc2nc(N)nc(N)c2n1)c1ccc(C(=O)N[C@@H](CCC(=O)O)C(=O)O)cc1` [METHOTREXATE] stands 0.535; under `COC(=O)/C=C/C(=O)O` [MONOMETHYL FUMARATE], 0.139; under `CN(CC(=O)O)NC(=O)C[C@H](N)C[C@@H](O)CN` [NEGAMYCIN], 0.874. In the case of `Cc1ccnc2c1NC(=O)c1cccnc1N2C1CC1` [NEVIRAPINE], the fraction unbound at 5 h was 0.557.

The compound `COc1ccc(-c2nc3ccc(C4=NNC(=O)CC4C)cc3[nH]2)cc1` (stereo not given) [PIMOBENDAN] gave a fraction unbound at 5 h (PPB) of 0.11.

`CCOc1cc(CC(=O)N[C@@H](CC(C)C)c2ccccc2N2CCCCC2)ccc1C(=O)O` [REPAGLINIDE]: the fraction unbound at 5 h (PPB) was 0.009.

`COC(=O)N(C)c1c(N)nc(-c2nn(Cc3ccccc3F)c3ncccc23)nc1N` [RIOCIGUAT] had a fraction unbound at 5 h of 0.0854. With `CS(=O)(=O)c1ccc(C2=C(c3ccccc3)C(=O)OC2)cc1` [ROFECOXIB], the unbound share (fraction unbound) at 5 h (PPB) was 0.069.

The values above are taken from ChEMBL document CHEMBL3301361, “Experimental in vitro DMPK and physicochemical data on a set of publicly disclosed compounds”.
